Results on one molecule are retold here after patent EP4803074A1, “PHARMACEUTICAL COMPOSITION OF PYRIMIDINE DERIVATIVE” (TYK Medicines, Inc., priority 2023, dated 2025).

A short description of data set [1]: Impurity B content of process samples on storage at room temperature (HPLC). The class given is physicochemical. To be noted: 20 days (Laboratory placement). From the text: Impurity B (Impurity RRT1.5, i.e., relative retention time 1.5) is a degradation impurity identified in the stability studies of this formulation and is a specific impurity that requires close monitoring. […] Therefore, the study of Impurity B content is also a key point of the invention. The method for determining the content of Impurity B is as follows: [table] [table] • Heptafluorobutyric acid: Chromatographic grade Water: Ultrapure water Ammonia solution: Chromatographic grade or analytical grade • Acetonitrile: Chromatographic grade Methanol: Chromatographic grade • TY-9591 Reference Standard: In-house preparation or commercially purchased • 3. […]

Data set [2] can be described thus: Single-dose pharmacokinetic study, fasting vs high-fat meal. The note with it: human, in vivo, po, 80 mg, healthy volunteers.
The next data set in a line: Permeability. It is filed as in vitro ADME. To be noted: result in words. From the text:
(§1) Drugs can be absorbed at many different sites along the gastrointestinal tract (including the stomach, duodenum, jejunum, ileum, and colon) following oral administration. Due to the significant pH gradient between the stomach (pH 1 - 3.5) and the small intestine (pH 4 - 8), the pH varies at each absorption site. […] In such cases, where the solubility of a drug varies with pH-and specifically when solubility is highest at acidic pH levels-a problem arises: the drug may precipitate out of solution as it passes through the gastrointestinal tract, but the drug should remain in solution to be absorbed, such precipitation may affect the extent and rate of absorption.

The next data set can be described thus: pH-dependent solubility. The class given is physicochemical. The note with it: result in words.
Excerpt: as §1

The mark [3] stands for this setting: After high-fat meal, single oral dose of 80 mg of Tablet 22.
[4] abbreviates: Fasting, single oral dose of 80 mg of Tablet 22.

Like-named read-outs stand apart in the source and are kept apart here.

In general, AUC(0-inf) refers to total exposure, with the tail of the curve extrapolated. A low value points to less exposure. For orientation: Cmax means the maximum level reached in the sampled fluid or tissue. For orientation: Tmax means the time at which the peak concentration occurs. Broadly, the half-life is the time in which the quantity being followed falls by half. A higher half-life goes with slow loss. As for `[2H]C([2H])([2H])n1cc(-c2ccnc(Nc3cc(NC(=O)C=C)c(N(C)CCN(C)C)cc3OC)n2)c2ccccc21` [TY-9591, N-(2-((2-(dimethylamino)ethyl) (methyl)amine)-4-methoxy-5-((4-(1-deuteriatedmethyl-1H-indol-3-yl)pyrimidin-2-yl)amine)phenyl)acrylamide], in data set [1], the “Impurity B/%” value is recorded as 0.13%. For the same molecule, the AUC(0-inf) in data set [2] (setting [3]) was 4350 ng·h/mL; in data set [2] (setting [4]) it was 3930 ng·h/mL. The Cmax in data set [2] (setting [3]) turned out to be 69 ng/mL; in data set [2] (setting [4]) it was 67.8 ng/mL. For the same molecule, the Tmax in data set [2] (setting [3]) was 5.95 h; in data set [2] (Fasting, single oral dose of 80 mg of Tablet 22 (40 mg*2 tablets)), 5.99 h. For the same molecule, the half-life in data set [2] (setting [3]) is 48.6 h; in data set [2] (setting [4]), 51.2 h. Also, the AUC(0-t) in data set [2] (After high-fat meal, single oral dose of 80 mg of Tablet 22, read-out: AUC0-72h) came to 2670 ng·h/mL; in data set [2] (After high-fat meal, single oral dose of 80 mg of Tablet 22, read-out: AUC0-t), 4300 ng·h/mL; in data set [2] (Fasting, single oral dose of 80 mg of Tablet 22, read-out: AUC0-72h), 2330 ng·h/mL; in data set [2] (Fasting, single oral dose of 80 mg of Tablet 22, read-out: AUC0-t) it was 3880 ng·h/mL. For the same molecule, in “Permeability”, the permeability entry is reported as “moderate permeability”. Moreover, the “solubility at pH 1 (hydrochloric acid) compared to pH 6.8 (sodium hydroxide-sodium dihydrogen phosphate buffer, 25 mM)” value in the data set “pH-dependent solubility” is “higher solubility”.
